The source of these data is patent publication US20260102492A1, “Inhibition of Natural Killer Cell Cytoxocity” (University of Cincinnati, priority 2022, published 2026).

Entries after “also recorded” stand apart in the source; their conditions may differ.

The subject of experiment [1] is HNSCC patient-derived NK cells. Put plainly: CXCL1 ELISA of NK cell culture supernatant. It counts as cell-based, Human. Here is the method: Healthy donor and HNSCC NK cells were isolated from PBMCs and were treated for 24 hrs with vehicle or metformin. Supernatant was collected and analyzed by ELISA (analyzed by one way ANOVA. n=10).
HNSCC NK cells were isolated from PBMCs and treated with vehicle, 12 mM metformin, 50 ng CXCL1, 10 uM everolimus, or 10 uM BP-1-102 for 24 hr. The cells were washed and plated in fresh media. After 24 hrs, supernatant was collected for ELISA.
Background: An ELISA detects its analyte on a solid surface through an enzyme-linked reagent.

Experiment [2] has as its system HNSCC patient-derived NK cells. Put plainly: NK cell perforin ELISA after co-culture with Cal27 cells. It counts as cell-based, Human. The protocol:
For NK cell perforin assays, NK cells were treated with drug for 24 hrs, washed, and co-cultured with Cal27 cells for 4 hours. Supernatant was then collected, snap frozen in liquid nitrogen and stored at −80 until thawed for single use. For patient samples, undiluted plasma was added directly to ELISA. ELISA kit for perforin was obtained from ABCAM. ELISA was performed according to the manufacturer's protocol. Protocols included overnight coating of capture antibody diluted by lot number recommendation, 1 hr block with 400 uL 2% BSA in PBS, 2 hr sample incubation at room temperature of 100 uL sample (no dilution of sample was performed in these experiments), 2 hr […] diluted by lot number recommendation, 20 min Streptavidin incubation with 100 uL of 1:40 dilution of stock, and 15 min incubation with 100 uL included TMB ELISA reagent. 50 uL stop solution of in house 2N […] was added to stop reaction before reading at […] wavelength on plate reader. All plates included standard curve prepared per lot number recommendation with range of 35-2000 pg.
HNSCC patient-derived NK cells were treated with exogenous CXCL1 and an inhibitor of the CXCL1 receptor, CXCR2, or metformin. Patient-derived NK cells were exposed to Cal27 cells for 4 hours and supernatant was collected for perforin analysis by ELISA. Specifically, HNSCC NK cells derived from PBMCs were treated with 50 ng CXCL1, 12 mM metformin, or 10 nM CXCR2i (navarixin) and subjected to perforin against Cal27 target cells. Cells were analyzed by flow and analyzed by one way ANOVA. n=8.
Specifically, HNSCC NK cells were treated with vehicle, metformin, or 10 uM AMPK inhibitor (Dosomorphin) for 24 hrs, washed, and co-cultured with Cal27 cells for 4 hrs. Supernatant was collected for ELISA and analyzed by one way ANOVA. n=5.
HNSCC patient-derived NK cells were treated with vehicle, metformin, 10 uM mTOR inhibitor (Everolimus), or 10 uM mTOR activator (MHY1485) for 24 hrs, washed, and co-cultured with Cal27 cells for 4 hrs. Supernatant was collected for ELISA and analyzed by one way ANOVA. n=5.
As pSTAT1 can modulate perforin production, HNSCC patient-derived NK cells were treated with vehicle, […], or 10 uM of pSTAT1i inhibitor Fludarabine for 24 hrs, washed, and co-cultured with Cal27 cells for 4 hrs.
HNSCC NK cells were treated with vehicle, 12 mM metformin, 50 ng CXCL1, or 10 uM pSTAT3 inhibitor BP-1012 and co-cultured with Cal27 cells for 4 hrs. Supernatant was collected for ELISA and analyzed by one way ANOVA. n=5.

The next experiment has as its system pSTAT1. Description: Western blot of HNSCC NK cell lysates, pSTAT1. In kind it is cell-based, Human. The conditions noted are these: metformin or 50 ng CXCL1, 24 hrs, FIG. 3A/3B. Here is the method:
NK92, Cal27, UMSCC47 and HN5 cells were cultured with drug as described. Cells were collected in RIPA (0.05% sodium deoxycholate, […], 0.1% SDS, 1% NP-40) and protein content was analyzed by Pierce BCA kit (Thermo 23225). 50 ug of protein was diluted in 1×loading buffer (SDS, bromophenol blue, 47% glycerol, Tris 0.5M pH 6.8, 0.2 mM DTT-G) and heated to 90° C. for 3 minutes. Prepared lysate was loaded into gradient gels (Biorad 4561093) and run at 85V for 1.5 hour in Biorad casing with a Biorad powerpack in 1×running buffer (Tris, Glycine, SDS). Gels were transferred on nitrocellulose and run at 100V on bench for 1 hour in 1×transfer buffer (Tris, Glycine). […] Images were analyzed in Image Studio Lite V 5.2.
To determine what those pathways could be, pathways known to be affected by both metformin and CXCL1 were investigated. pSTAT3 and mTOR are known to be increased by activation of the CXCR2 receptor, and mTOR activation can inhibit pSTAT1 expression. […] Therefore, HNSCC patient-derived NK cells treated with metformin, CXCL1, or CXCR2i (navaxarin) were collected and analyzed by western blot analysis. Head and neck squamous cell carcinoma (HNSCC) natural killer (NK) cells were treated with metformin, 50 ng CXCL1, or 10 uM CXCR2i (navarixin) for 24 hrs and collected for lysates analyzed by western blot analysis (FIG. 3A).
A general note: In western blotting, separated proteins are transferred to a membrane and probed.

The subject of the next experiment is pSTAT3. Description: Western blot of HNSCC NK cell lysates, pSTAT3. The conditions noted are these: metformin or 50 ng CXCL1, 24 hrs; western blot, FIG. 3A/3B. It counts as cell-based, Human. Here is the method: NK92, Cal27, UMSCC47 and HN5 cells were cultured with drug as described. Cells were collected in RIPA (0.05% sodium deoxycholate, […], 0.1% SDS, 1% NP-40) and protein content was analyzed by Pierce BCA kit (Thermo 23225). 50 ug of protein was diluted in 1×loading buffer (SDS, bromophenol blue, 47% glycerol, Tris 0.5M pH 6.8, 0.2 mM DTT-G) and heated to 90° C. for 3 minutes. Prepared lysate was loaded into gradient gels (Biorad 4561093) and run at 85V for 1.5 hour in Biorad casing with a Biorad powerpack in 1×running buffer (Tris, Glycine, SDS). Gels were transferred on nitrocellulose and run at 100V on bench for 1 hour in 1×transfer buffer (Tris, Glycine). Membranes were blocked in 5% BSA in TBS for 1 hr, washed, and incubated in primary diluted in 2% BSA in TBS overnight. Membranes were washed and incubated in Licor secondary (Licor 926-32211 and 925-68070) in 5% BSA in TBS for 1 hr. Membranes were washed and imaged on a Licor Odyssey Clx. Images were analyzed in Image Studio Lite V 5.2.
To determine what those pathways could be, pathways known to be affected by both metformin and CXCL1 were investigated. pSTAT3 and mTOR are known to be increased by activation of the CXCR2 receptor, and mTOR activation can inhibit pSTAT1 expression. Metformin is also hypothesized to inhibit pSTAT3 and mTOR in NK cells. Therefore, HNSCC patient-derived NK cells treated with metformin, CXCL1, or CXCR2i (navaxarin) were collected and analyzed by western blot analysis. Head and neck squamous cell carcinoma (HNSCC) natural killer (NK) cells were treated with metformin, 50 ng CXCL1, or 10 uM CXCR2i (navarixin) for 24 hrs and collected for lysates analyzed by western blot analysis (FIG. 3A).

A further experiment deals with CXCL1. Description: Patient plasma CXCL1 ELISA, trial NCT04414540 (pembrolizumab and metformin). In kind it is in vivo, Human.
The next experiment relates to HNC NK cells. Description: RNA-seq of metformin treated HNSCC patient-derived NK cells. In kind it is cell-based, Human. The settings on record: 12 mM metformin 24 hrs. The protocol: HNC NK cells were isolated as above and were treated with vehicle or 12 mM metformin for 24 hrs. Cells were washed, suspended in CyroStor, and frozen. Samples were sent to Genewiz/Azenta for standard RNA-seq profiling. Sequence reads were aligned to the current reference […] genome (GRCh38) using the STAR aligner (43,44) and the reads aligned to each known gene were counted based on the latest GENCODE definitions of gene features.

Experiment [3] can be described thus: Peripheral blood cell populations and serum cytokines of HNSCC patients after metformin treatment. In kind it is in vivo, Human. The protocol: An Unpaired 2-tailed T Test With Welch's correction was used for analysis between flow cytometry in controls versus HNSCC patients. A 2-tailed Student's t test was used to compare differences between HNSCC patients before and after treatment in flow cytometry and cytokine experiments. Differences in immune cell populations between three groups were compared by one-way ANOVA with specific post-hoc contrasts. NKCA data were compared using a paired t test. Statistical analysis was performed in GraphPad Prism (V10). Differences between groups were considered statistically significant when P<0.05.

Setting [4] is: patient serum cytokine profile, after metformin.
Setting [5] is: patients, after metformin treatment.

For `CN(C)C(=N)N=C(N)N` [metformin, Metformin], in experiment [1] (HNSCC patient-derived NK cells treated 24 hrs, n=10, FIG. 1), the CXCL1 supernatant levels entry is recorded as “inhibits CXCL1 release; also recorded: significantly reduced CXCL1 supernatant levels”. Further, in experiment [1] (single agent (12 mM metformin, 10 uM everolimus or 10 uM BP-1-102) 24 hr, fresh media 24 hrs, n=5, FIG. 8), the CXCL1 secretion entry was “reduces CXCL1”. Besides, in experiment [2] (12 mM Metformin in pSTAT1-inhibited (10 uM Fludarabine) NK cells, Cal27 co-culture 4 hrs, FIG. 6), the perforin result is “rescued to baseline”. For the same molecule, in experiment [2] (12 mM metformin or 50 ng CXCL1, Cal27 target cells 4 hours, n=8, FIG. 2), the perforin production result was “increased perforin”. Moreover, the pSTAT1 result in the experiment with pSTAT1 was “increases pSTAT1; also recorded: increase in pSTAT1”. In addition, the pSTAT3 result in the experiment on pSTAT3 is listed as “decreases pSTAT3; also recorded: reduction of pSTAT3”. The “circulating CXCL1” value in the experiment on CXCL1 (post-metformin and pembrolizumab combination (week 4), n=5) is on record as “decrease was not retained”; in the experiment on CXCL1 (post-metformin only vs pre-treatment, n=5, FIG. 9), “decreased”; in the experiment with CXCL1 (post-metformin only vs pre-treatment, n=5, FIG. 9, listed as Metformin) it was “reduced circulating CXCL1”. For the same molecule, the “CXCL1 expression (RNA-seq)” value in the experiment on HNC NK cells is on record as “significantly downregulated CXCL1”. For the same molecule, the “expression of NKG2D” value in experiment [3] (circulating NK and NKT cells, after metformin treatment) is reported as “increasing expression of NKG2D back to levels seen in healthy controls”. Also, the IL-2 entry in experiment [3] (setting [4]) is “increasing”. Also, the TNF-α result in experiment [3] (setting [4]) is on record as “increasing”. Besides, the TEM cells entry in experiment [3] (setting [5]) is reported as “larger population”. Moreover, the “circulating NK and NKT cell populations” value in experiment [3] (setting [5]) is “partially restored”.
